Results published in publication PMC3006138, “Fexinidazole – A New Oral Nitroimidazole Drug Candidate Entering Clinical Development for the Treatment of Sleeping Sickness” (PLoS Neglected Tropical Diseases, 2010).
Read-outs that look alike come from different tables or passages of the source.

Key:
[1] = Hepatocyte intrinsic clearance and metabolite profile; type: in vitro ADME, mouse; conditions: male, CD-1, mouse, cryopreserved hepatocytes, 1 µM
Protocol: (§1) Fexinidazole was incubated with cryopreserved hepatocytes from male CD-1 mice, male Sprague Dawley rats, male beagle dogs, male cynomolgus monkeys, and from pooled white or African-American human donor samples (purchased commercially), at concentrations of 1 µM and 10 µM. […] The incubated samples were analyzed by LC-MS after extraction into acetonitrile.
(§2) A quality control analysis of fexinidazole was performed via 1H-NMR in DMSO and LC- […]
(§3) provided by the Swiss Tropical Institute (Basel, Switzerland).
(§4) Reagents and solvents were of analytical grade and obtained from Sigma-Aldrich (St. Louis, […]
(§5) Cryopreserved hepatocytes from the male CD1 mouse, lot CSI; male Sprague Dawley rat, lot LPL; male beagle dog, lot BWX; male cynomolgus monkey, lot EHH; and pooled human samples, lot MJI, were purchased from In Vitro Technologies Inc (Baltimore, Maryland, […]
(§6) 5.4. In vitro Incubations
(§7) On the day of the experiment a 10 mM stock solution of fexinidazole in DMSO was prepared and, within 3 hours, aliquots of this freshly prepared solution, after suitable dilution, were added to the incubation matrix, to reach fexinidazole final concentrations of 1 and 10 µM. The final percentage of DMSO was 0.01% in the incubation samples for the […]
(§8) On the day of experiment, the cryopreserved hepatocytes were thawed following the detailed instructions provided by the supplier.
(§9) The number of viable cells was determined using a Trypan Blue exclusion method.
(§10) 5.4.1. Intrinsic Clearance Study […]
(§11) µM with mouse, rat, dog, monkey and human hepatocytes (300000 cells/mL for the mouse and 1 million cells/mL for the other species) in a final incubation volume of 0.75 mL […]
(§12) Incubations were performed in duplicate in a 48-well plate under shaking. Sampling was performed using an automatic liquid handling system (Multiprobe II EX, Packard). At 0, 1, 5, 10, 15, 20, 30, 60 and 120 minutes, 50 µL aliquots of the incubates were taken, then 80 µL of ice-cold acetonitrile and 20 µL of 1 µM warfarin in acetonitrile (internal standard) were added, and samples centrifuged at 2000 rpm for 20 min. The supernatant was analyzed by LC-MS/MS. […]
(§13) the medium alone at t = 0 and 120 minutes.
(§14) For the determination of phase I and phase II activity of hepatocytes, 7-ethoxycoumarin (7-EC) 1 µM, and 7-hydroxycoumarin (7-HC) 30 µM were used as positive controls and incubated under the same conditions as fexinidazole. Aliquots of incubates were taken at 0, 10, 20, 30, 60 and 120 minutes and processed as fexinidazole samples.
(§15) 5.4.2. Metabolite Profile Study
(§16) For metabolite profiling, fexinidazole was incubated at a concentration of 10 µM with mouse, rat, dog, monkey and human hepatocytes (300000 cells/mL for the mouse and 1 million cells/mL for the other species) in a final incubation volume of 2 mL Leibovitz L-15 […]
(§17) Aliquots of the incubation samples were taken at t = 0, 30 and 120 minutes; the metabolism was stopped by the addition of an equal volume of cold acetonitrile and the samples centrifuged at 1500 rpm for 20 min. The supernatant was stored at -20°C until analysis. Control incubations were performed with the compound in the medium alone […]
(§18) 5.5. Analysis of Samples for Intrinsic Clearance Determination
(§19) The analysis of the samples for intrinsic clearance determination was performed by an LC-MS/MS method, using the following conditions:
(§20) HPLC Equipment and Conditions
(§21) HPLC system Agilent 1100 binary pump (Agilent, Palo Alto, USA)
(§22) Autosampler CTC Pal (Alfatech, San Jose, USA)
(§23) Analytical column Guard Column SB-C8 4.6 x 12.5 mm, 5 µm (Zorbax)
(§24) Column temperature ambient
(§25) Mobile phase A 10 mM ammonium formate pH 4.0: acetonitrile (95:5, v:v)
(§26) Mobile phase B 10 mM ammonium formate pH 4.0: acetonitrile (5:95, v:v) […]
(§27) Gradient conditions Step Total time (min) flow (µL/min) %A % B […]
(§28) MS Equipment and Conditions
(§29) Mass spectrometer API 4000 Triple Quadrupole (MDS-Sciex, Toronto, […]
(§30) Source Turbo Ion Spray (TIS)
(§31) Ion mode Positive for fexinidazole and 7-EC.
(§32) Negative for 7-HC, 7-HC sulphate and 7-HC glucuronide.

[2] = as above; type: in vitro ADME, cynomolgus monkey; conditions: male, cynomolgus monkey, cryopreserved hepatocytes, 1 µM
Protocol: as §1, §2, §3, §4, §5, §6, §7, §8, §9, §10, §11, §12, §13, §14, §15, §16, §17, §18, §19, §20, §21, §22, §23, §24, §25, §26, §27, §28, §29, §30, §31, §32

[3] = as above; type: in vitro ADME, human; conditions: human
Protocol: as §1
Fexinidazole sulfoxide, lot 1106-I-0170, 99.3% purity, and fexinidazole sulfone, lot 1106-I-0171, 99.9% purity, were provided by the Sponsor.
Cryopreserved hepatocytes of five single donors, lots EHI, REL, KSE […]
ZIJ and MRS, were purchased from In Vitro Technologies Inc (Baltimore, Maryland, USA).
The certificates of analysis are reported in Appendix 1.
as §4
7.5. In Vitro Incubations
as §7
The cryopreserved hepatocytes were thawed according to the supplier’s procedure and the number of viable cells was determined using the Trypan Blue exclusion method. Viabilities were 92% for lot EHI, 89% for lot REL, 82% for lot KSE, 86% for lot ZIJ and 86% for lot MRS in the intrinsic clearance study. In the metabolite profile study viabilities were 91% for lot EHI, 90% for lot REL, 85% for lot KSE, 84% for lot ZIJ and 87% for lot MRS.
Afterwards, the same amount of viable cells for each donor were pooled and used for the incubations of fexinidazole.
7.5.1. Intrinsic Clearance Study […]
as §12, with “µM with pooled human hepatocytes (1 million cells/mL) in a final incubation volume of 1 mL Leibovitz L-15 medium, at 37°C. Incubations” for “Incubations”
The chemical stability of fexinidazole was checked by incubating the compound at 37°C in the medium alone at t = 0 and 120 minutes.
For the determination of phase I and phase II activities of hepatocytes, 7-ethoxycoumarin (7-ETC) 1 µM, and 7-hydroxycoumarin (7-HC) 30 µM were used as positive controls and incubated under the same conditions as fexinidazole. Aliquots of incubates were taken at 0, 1, 5, 10, 15, 20, 30, 60 and 120 minutes and processed as fexinidazole samples.
7.5.2. Metabolite Profile Study
For metabolite profiling, fexinidazole was incubated at a concentration of 10 µM with pooled human hepatocytes (1 million cells/mL) in a final incubation volume of 2 mL Leibovitz L-15 medium, at 37°C. Aliquots of the incubation samples were taken at t = 0, 30 and 120 minutes; the metabolism was stopped by the addition of an equal volume of cold acetonitrile and the samples centrifuged at 1100 rpm for 20 min. The supernatant was stored at -20°C until analysis. Control incubations were performed with the compound in the medium alone for 120 minutes.
7.6. Analysis of the Samples of Intrinsic Clearance Study
as §19, §20
HPLC system 1100 binary pump (Agilent, Palo Alto, USA)
Autosampler 2777 (Waters)
as §23, §24, §25, §26, §27

CSc1ccc(OCc2ncc([N+](=O)[O-])n2C)cc1 [Fexinidazole, 1-methyl-2-((p-(methylthio)phenoxy)methyl)-5-nitroimidazole]
half-life at 1 µM [1]: 1.4 min | CLint scaled at 1 µM ([1]; read-out: CLint in vitro): > 3000 mL/min/kg | hepatocyte CLint at 1 µM ([1]; read-out: CLint in vitro): 1630 µL/min/1e6 cells | CLint scaled at 1 µM ([2]; read-out: CLint in vitro): 6500 mL/min/kg | half-life at 1 µM ([2]; cynomolgus): 0.6 min | hepatocyte CLint at 1 µM ([2]; cynomolgus, read-out: CLint in vitro): 1190 µL/min/1e6 cells | half-life at 1 µM [3]: 6.5 min | CLint scaled at 1 µM ([3]; read-out: CLint in vitro): 257 mL/min/kg | hepatocyte CLint at 1 µM ([3]; read-out: CLint in vitro): 107 µL/min/1e6 cells
